{"source": "patent US6808924B1", "about": "“Mouse mammary tumor lines expressing estrogen and progesterone receptors” (priority 2000, dated 2004)", "key": {"[1]": {"test_system": "MC4-L2 cell line", "assay": "In vitro hormone response, 3H-thymidine uptake, MC4-L2", "format": "cell-based, mouse", "method": "(§1) 3H-Thymidine uptake: In a 96 well microplate, 0.1 ml/well of a cell suspension were seeded in EM at a concentration of 10^5 cell/ml. After attachment (24 hs), the cells were incubated for 72 hs with the experimental solutions to be tested. Half the media was changed every 24 hs. The cells were incubated with 0.4 μCi of ^3H-thymidine (specific activity: 20 Ci/mmol) for 24 hs, trypsinized and harvested in a cell harvester. Filters were counted in a liquid scintillation counter. Assays were performed in octuplicates and mean and standard deviation were calculated for each solution tested. The difference between controls and experimental groups were analyzed by ANOVA followed by Dunnet's t test between groups."}, "[2]": {"test_system": "MC4-L3 tumors", "assay": "In vivo hormone response, MC4-L3 tumors in BALB/c female mice", "set-up": "species or system mouse", "details": "for effect on tumor size (tumor regression): MC4-L3 tumors about 50 mm2, ZK 10 mg/Kg or RU 6.5 mg/Kg daily sc, E2 5 mg silastic pellet sc", "method": "(§2) Cells were trypsinized and resuspended in 10 fold excess of culture medium and 10% FCS. After centrifugation cells were resuspended in serum-free medium and […] were injected sc in a final volume of 0.1 ml using a 21 gauge needle in the right inguinal flank of BALB/c mice which have been inoculated contralaterally with 40 mg MPA depot (Gador Laboratories, Buenos Aires). The mice were examined every three days for the development of palpable tumors. At the end of the experiment the animals were killed and the tumors excised. Complete autopsies were performed to detect the presence of metastases. Animal care was in agreement with institutional guidelines. Cells from different lines were inoculated into BALB/c female mice treated or not with MPA as described previously. If tumors grew similarly in treated and untreated animals, the tumors growing in untreated mice were used for the next passage. Tumors were transplanted by trocar sc in the right inguinal flank of 2 month old, BALB/c female mice. Hormone treatments were initiated when the tumors reached around 50 mm2. RU (6.5 mg/Kg body weight) and ZK (10 mg/Kg body weight) were inoculated as daily sc injections. E2 was administered as 5 mg silastic pellets implanted sc. Tumor growth was measured every 2-3 days."}, "[3]": {"test_system": "MC4-L1 cell line", "assay": "In vitro hormone response, 3H-thymidine uptake, MC4-L1", "format": "cell-based, mouse", "method": "as §1"}, "[4]": {"test_system": "MC4-L1 tumors", "assay": "In vivo hormone response, MC4-L1 tumors in BALB/c female mice", "set-up": "species or system mouse", "details": "for effect on tumor size (tumor regression): MC4-L1 tumors about 50 mm2, no MPA, ZK 10 mg/Kg or RU 6.5 mg/Kg daily sc, E2 5 mg silastic pellet sc", "method": "as §2"}, "[5]": {"test_system": "MC7-L1 cell line", "assay": "In vitro hormone response, 3H-thymidine uptake, MC7-L1", "format": "cell-based, mouse", "set-up": "In vitro proliferative response: key to the marks not given beside the values", "method": "as §1"}, "[6]": {"test_system": "MC7-L1 tumors", "assay": "In vivo hormone response, MC7-L1 tumors in BALB/c female mice", "set-up": "species or system mouse", "details": "for effect on tumor size (tumor regression): MC7-L1 tumors, ZK 10 mg/Kg or RU 6.5 mg/Kg daily sc, E2 5 mg silastic pellet sc", "method": "as §2"}, "[7]": {"test_system": "MC4-L2 tumors", "assay": "In vivo hormone response, MC4-L2 tumors in BALB/c female mice", "set-up": "species or system mouse", "method": "as §2"}, "[8]": {"test_system": "MC4-L3 cell line", "assay": "In vitro hormone response, 3H-thymidine uptake, MC4-L3", "format": "cell-based, mouse", "method": "as §1"}, "[9]": {"test_system": "C4-HD primary and secondary cultures", "details": "primary and secondary cultures of C4-HD (Dran G. et al. 1995); cited from earlier work"}, "[10]": {"details": "MC4-L1, early passages (before passage number 16)"}}, "data": [{"molecule": "CC#C[C@]1(O)CC[C@H]2[C@@H]3CCC4=CC(=O)CCC4=C3[C@@H](c3ccc(N(C)C)cc3)C[C@@]21C", "note": "[RU, mifepristone]", "values": [{"measurement": "effect on cell proliferation (3H-thymidine uptake)", "setting": "[1]; MC4-L2", "result": "did not induce any change"}, {"measurement": "effect on tumor size (tumor regression)", "setting": "[2]", "result": "Complete regression"}, {"measurement": "effect on cell proliferation (3H-thymidine uptake)", "setting": "[3]; [10]", "result": "agonist effect"}, {"measurement": "effect on tumor size (tumor regression)", "setting": "[4]", "result": "Only animals treated with ZK showed tumor regression"}, {"measurement": "effect on cell proliferation (3H-thymidine uptake)", "setting": "[5]; MC7-L1, about 0.1 to about 1 μM", "result": "stimulatory effect"}, {"measurement": "effect on tumor size (tumor regression)", "setting": "[6]", "result": "not inhibited"}, {"measurement": "effect on tumor size (tumor regression)", "setting": "[7]; MC4-L2 tumors about 50 mm2, RU 6.5 mg/Kg daily sc", "result": "complete regression"}]}, {"molecule": "TGFβ1: TGFβ1", "values": [{"measurement": "effect on cell proliferation (3H-thymidine uptake)", "setting": "[3]; MC4-L1, later passages", "result": "significant inhibition of cell growth"}, {"measurement": "effect on cell proliferation (3H-thymidine uptake)", "setting": "[8]; MC4-L3", "result": "inhibited"}, {"measurement": "effect on thymidine uptake", "setting": "[5]; MC7-L1", "result": "had no effects"}]}, {"molecule": "CC(=O)O[C@]1(C(C)=O)CC[C@H]2[C@@H]3C[C@H](C)C4=CC(=O)CC[C@]4(C)[C@H]3CC[C@@]21C", "note": "[MPA, medroxyprogesterone acetate]", "values": [{"measurement": "effect on cell proliferation (3H-thymidine uptake)", "setting": "[1]; MC4-L2, 0.1 nM to about 10 nM", "result": "significant stimulatory effect"}, {"measurement": "MPA dependence of tumor growth", "setting": "[2]; MC4-L3, MPA-treated vs non-treated mice", "result": "PD pattern"}, {"measurement": "effect on cell proliferation (3H-thymidine uptake)", "setting": "[3]; [10]", "result": "stimulatory effect"}, {"measurement": "effect on cell proliferation (3H-thymidine uptake)", "setting": "[3]; MC4-L1, later passages", "result": "only evident (p<0.05) with uM concentrations"}, {"measurement": "MPA dependence of tumor growth", "setting": "[4]; MC4-L1 inoculated sc, mice treated or not with 40 mg MPA depot sc", "result": "same pattern of growth that was observed in the parental tumor line"}, {"measurement": "MPA dependence of tumor growth", "setting": "[4]; MC4-L1 subculture 70, 3rd passage", "result": "MPA-dependent"}, {"measurement": "MPA dependence of tumor growth", "setting": "[4]; MC4-L1 subculture 70, next passage", "result": "growth was favored"}, {"measurement": "effect on cell growth (3H-thymidine uptake)", "setting": "[5]; MC7-L1, about 1 nM to about 1 uM", "result": "significantly stimulates cell growth"}, {"measurement": "MPA dependence of tumor growth", "setting": "[6]; MC7-L1, MPA-treated vs non-treated mice", "result": "PI pattern of growth"}, {"measurement": "effect on cell proliferation", "setting": "[9]", "result": "stimulates directly cell proliferation"}, {"measurement": "MPA dependence of tumor growth", "setting": "[7]; MC4-L2, MPA-treated vs non-treated mice", "result": "PI pattern of growth"}]}, {"molecule": "C[C@]12CC[C@@H]3c4ccc(O)cc4CC[C@H]3[C@@H]1CC[C@@H]2O", "note": "[E2, estradiol]", "values": [{"measurement": "In vitro proliferative response", "setting": "[1]; MC4-L2, Table 2 grade", "result": "+"}, {"measurement": "In vitro proliferative response", "setting": "[3]; MC4-L1, Table 2 grade", "result": "±"}, {"measurement": "In vitro proliferative response", "setting": "[8]; MC4-L3, Table 2 grade", "result": "−"}, {"measurement": "concentration at which the higher values of proliferation were obtained", "setting": "[5]; MC7-L1", "result": "about 1 nM"}, {"measurement": "In vitro proliferative response", "setting": "[5]; MC7-L1, Table 2 grade", "result": "++"}, {"measurement": "effect on tumor size (tumor regression)", "setting": "[6]", "result": "not inhibited"}]}, {"molecule": "CN(C)c1ccc([C@H]2C[C@]3(C)[C@@H](CC[C@]3(O)CCCO)[C@@H]3CCC4=CC(=O)CCC4=C32)cc1", "note": "[ZK, onapristone]", "values": [{"measurement": "effect on cell proliferation (3H-thymidine uptake)", "setting": "[1]; MC4-L2, about 0.1 to about 1 uM", "result": "in some experiments showed an inhibitory effect"}, {"measurement": "effect on tumor size (tumor regression)", "setting": "[2]", "result": "Complete regression"}, {"measurement": "effect on cell proliferation (3H-thymidine uptake)", "setting": "[3]; MC4-L1, μM concentrations", "result": "stimulated cell proliferation"}, {"measurement": "effect on tumor size (tumor regression)", "setting": "[4]", "result": "showed tumor regression"}, {"measurement": "effect on thymidine uptake", "setting": "[5]; MC7-L1", "result": "did not modify thymidine uptake"}, {"measurement": "effect on tumor size (tumor regression)", "setting": "[6]", "result": "not inhibited"}]}]}
